# Laboratory results from patent US11731944B2, “SARS-CoV-2 inhibitors for treating coronavirus infections” (priority 2021, dated 2023).
# pIC50: −log10 of the molar value.
# Biological target: SARS-CoV-2 MPRO (Severe acute respiratory syndrome coronavirus 2 (2019-nCoV) (SARS-CoV-2), UniProt P0DTD1)
# Assay: SARS-CoV-2 Mpro enzymatic assay (FRET substrate cleavage)
# Assay type: biochemical
# Details: C-His6-tagged SARS-CoV-2 MPRO 25 nM, 30 min pre-incubation at RT, 60 min at 30° C., 10 doses from 25 μM; read-out: M pro IC50
row,SMILES,pIC50
1,"C[C@](C(=O)NC1CCOC1)(c1cncnc1)N(C(=O)[C@H](F)Cl)c1ccc(OC(F)(F)F)cc1 (single isomer, unassigned) [Example 6a]",> 7.00
2,"C[C@](C(=O)NC1CCOC1)(c1cncnc1)N(C(=O)[C@H](F)Cl)c1ccc(OC(F)(F)F)cc1 (single isomer, unassigned) [Example 6b]",> 7.00
3,"C[C@@](C(=O)NC1CCOC1)(c1cncnc1)N(C(=O)[C@H](F)Cl)c1ccc(OC(F)(F)F)cc1 (single isomer, unassigned) [Example 6c]",5.00 to 6.00
4,"C[C@@](C(=O)NC1CCOC1)(c1cncnc1)N(C(=O)[C@H](F)Cl)c1ccc(OC(F)(F)F)cc1 (single isomer, unassigned) [Example 6d]",< 5.00
5,"CC1(C)C[C@H](NC(=O)[C@@](C)(c2cncnc2)N(C(=O)[C@H](F)Cl)c2ccc(OC(F)(F)F)cc2)CCO1 (single isomer, unassigned) [Example 77a]",> 7.00
6,C[C@@](C(=O)NC1CCC(F)(F)CC1)(c1cncnc1)N(C(=O)[C@H](F)Cl)c1ccc(-c2cncs2)cc1 [Example 1b],5.00 to 6.00
7,C[C@](C(=O)NC1CCC(F)(F)CC1)(c1cncnc1)N(C(=O)[C@H](F)Cl)c1ccc(-c2ccno2)cc1 [Example 2a],> 7.00
8,C[C@@](C(=O)NC1CCC(F)(F)CC1)(c1cncnc1)N(C(=O)[C@H](F)Cl)c1ccc(-c2ccno2)cc1 [Example 2b],5.00 to 6.00
9,[2H][C@](C(=O)NC1CCC(F)(F)CC1)(c1cncnc1)N(C(=O)[C@H](F)Cl)c1ccc(OC(F)(F)F)cc1 [Example 3a],> 7.00
10,[2H][C@@](C(=O)NC1CCC(F)(F)CC1)(c1cncnc1)N(C(=O)[C@H](F)Cl)c1ccc(OC(F)(F)F)cc1 [Example 3b],< 5.00
11,C[C@](C(=O)NC1CCC(F)(F)CC1)(c1cncnc1)N(C(=O)[C@H](F)Cl)c1ccc(OC(F)(F)F)cc1 [Example 4a],> 7.00
12,C[C@@](C(=O)NC1CCC(F)(F)CC1)(c1cncnc1)N(C(=O)[C@H](F)Cl)c1ccc(OC(F)(F)F)cc1 [Example 4b],5.00 to 6.00
13,C[C@](C(=O)NC1CCOCC1)(c1cncnc1)N(C(=O)[C@H](F)Cl)c1ccc(OC(F)(F)F)cc1 [Example 5a],> 7.00
14,C[C@@](C(=O)NC1CCOCC1)(c1cncnc1)N(C(=O)[C@H](F)Cl)c1ccc(OC(F)(F)F)cc1 [Example 5b],5.00 to 6.00
15,Cn1ccc([C@](C)(C(=O)NC2CCC(F)(F)CC2)N(C(=O)[C@H](F)Cl)c2ccc(OC(F)(F)F)cc2)cc1=O [Example 13a],< 5.00
16,C[C@](C(=O)NC1CCOCC1)(c1cncc(F)c1)N(C(=O)[C@H](F)Cl)c1ccc(OC(F)(F)F)cc1 [Example 14a],> 7.00
17,C[C@@](C(=O)NC1CCOCC1)(c1cncc(F)c1)N(C(=O)[C@H](F)Cl)c1ccc(OC(F)(F)F)cc1 [Example 14b],< 5.00
18,C[C@](C(=O)NC1CC(F)(F)C1)(c1cncnc1)N(C(=O)[C@H](F)Cl)c1ccc(OC(F)(F)F)cc1 [Example 18a],> 7.00
19,C[C@@](C(=O)NC1CC(F)(F)C1)(c1cncnc1)N(C(=O)[C@H](F)Cl)c1ccc(OC(F)(F)F)cc1 [Example 18b],5.00 to 6.00
20,C[C@](C(=O)NC1CCC(F)(F)CC1)(c1cncnc1)N(C(=O)[C@H](F)Cl)c1ccc(S(F)(F)(F)(F)F)cc1 [Example 22a],> 7.00
21,C[C@@](C(=O)NC1CCC(F)(F)CC1)(c1cncnc1)N(C(=O)[C@H](F)Cl)c1ccc(S(F)(F)(F)(F)F)cc1 [Example 22b],5.00 to 6.00
22,C[C@](C(=O)NC1CCOCC1)(c1cncnc1)N(C(=O)[C@H](F)Cl)c1ccc(S(F)(F)(F)(F)F)cc1 [Example 23a],5.00 to 6.00
23,C[C@@](C(=O)NC1CCOCC1)(c1cncnc1)N(C(=O)[C@H](F)Cl)c1ccc(S(F)(F)(F)(F)F)cc1 [Example 23b],> 7.00

row,SMILES,pIC50
1,C[C@](C(=O)NC1CCC(F)(F)CC1)(c1cncnc1)N(C(=O)[C@H](F)Cl)c1ccc(C2(C(F)(F)F)CC2)cc1 [Example 28a],> 7.00
2,C[C@@](C(=O)NC1CCC(F)(F)CC1)(c1cncnc1)N(C(=O)[C@H](F)Cl)c1ccc(C2(C(F)(F)F)CC2)cc1 [Example 28b],< 5.00
3,C[C@](C(=O)NC1CCOCC1)(c1cncnc1)N(C(=O)[C@H](F)Cl)c1ccc(C2(C(F)(F)F)CC2)cc1 [Example 29a],6.00 to 7.00
4,C[C@@](C(=O)NC1CCOCC1)(c1cncnc1)N(C(=O)[C@H](F)Cl)c1ccc(C2(C(F)(F)F)CC2)cc1 [Example 29b],< 5.00
5,C[C@@](C(=O)NC1CCOCC1)(c1cncnc1)N(C(=O)[C@H](F)Cl)c1ccc(OC(F)(F)C(F)(F)F)cc1 [Example 32b],5.00 to 6.00
6,C[C@@](C(=O)NC1CCC(F)(F)CC1)(c1cncnc1)N(C(=O)[C@H](F)Cl)c1ccc(SC(F)(F)F)cc1 [Example 33b],6.00 to 7.00
7,C[C@](C(=O)NC1CCOCC1)(c1cncnc1)N(C(=O)[C@H](F)Cl)c1ccc(SC(F)(F)F)cc1 [Example 34a],> 7.00
8,C[C@@](C(=O)NC1CCOCC1)(c1cncnc1)N(C(=O)[C@H](F)Cl)c1ccc(SC(F)(F)F)cc1 [Example 34b],< 5.00
9,C[C@](C(=O)NCCc1cccc(F)c1)(c1cncnc1)N(C(=O)[C@H](F)Cl)c1ccc(OC(F)(F)F)cc1 [Example 36a],> 7.00
10,C[C@@](C(=O)NCCc1cccc(F)c1)(c1cncnc1)N(C(=O)[C@H](F)Cl)c1ccc(OC(F)(F)F)cc1 [Example 36b],< 5.00
11,CC1(C)COCC[C@H]1NC(=O)[C@@](C)(c1cncnc1)N(C(=O)[C@H](F)Cl)c1ccc(OC(F)(F)F)cc1 [Example 76a],> 7.00
12,CC1(C)COCC[C@@H]1NC(=O)[C@@](C)(c1cncnc1)N(C(=O)[C@H](F)Cl)c1ccc(OC(F)(F)F)cc1 [Example 76b],6.00 to 7.00
13,CC1(C)C[C@@H](NC(=O)[C@@](C)(c2cncnc2)N(C(=O)[C@H](F)Cl)c2ccc(OC(F)(F)F)cc2)CCO1 [Example 77b],> 7.00
14,C[C@](C(=O)NC1CCC(F)(F)CC1)(c1cncnc1)N(C(=O)[C@H](F)Cl)c1ccc(OC(F)(F)C(F)(F)F)cc1 [Example 90a],> 7.00
15,C[C@@](C(=O)NC1CCC(F)(F)CC1)(c1cncnc1)N(C(=O)[C@H](F)Cl)c1ccc(OC(F)(F)C(F)(F)F)cc1 [Example 90b],6.00 to 7.00
16,C[C@](C(=O)NC1CCC(F)(F)CC1)(c1cncnc1)N(C(=O)[C@H](F)Cl)c1ccc(OC(F)(F)Cl)cc1 [Example 92a],> 7.00
17,C[C@@](C(=O)NC1CCC(F)(F)CC1)(c1cncnc1)N(C(=O)[C@H](F)Cl)c1ccc(OC(F)(F)Cl)cc1 [Example 92b],6.00 to 7.00
18,C[C@](C(=O)NC1CCC(F)(F)CC1)(c1cncc(F)c1)N(C(=O)[C@H](F)Cl)c1ccc(SC(F)(F)F)cc1 [Example 95a],> 7.00
19,C[C@@](C(=O)NC1CCC(F)(F)CC1)(c1cncc(F)c1)N(C(=O)[C@H](F)Cl)c1ccc(SC(F)(F)F)cc1 [Example 95b],5.00 to 6.00
20,C[C@](C(=O)NC1CCOCC1)(c1cncc(F)c1)N(C(=O)[C@H](F)Cl)c1ccc(S(F)(F)(F)(F)F)cc1 [Example 97a],> 7.00
21,C[C@@](C(=O)NC1CCOCC1)(c1cncc(F)c1)N(C(=O)[C@H](F)Cl)c1ccc(S(F)(F)(F)(F)F)cc1 [Example 97b],< 5.00
22,C[C@](C(=O)NC1CCOCC1)(c1cncc(F)c1)N(C(=O)[C@H](F)Cl)c1ccc(OC(F)(F)Cl)cc1 [Example 98a],> 7.00

# Same assay, conditions: M pro IC50, C-His6-tagged SARS-CoV-2 MPRO 25 nM, 30 min pre-incubation at RT, 60 min at 30° C., 10 doses from 25 μM
row,SMILES,pIC50
1,"Cn1ccc([C@@](C)(C(=O)NC2CCC(F)(F)CC2)N(C(=O)[C@H](F)Cl)c2ccc(OC(F)(F)F)cc2)cc1=O (single isomer, unassigned) [Example 13b]",< 5.00
2,"C[C@](C(=O)NC1CCC(F)(F)CC1)(c1cncnc1)N(C(=O)[C@H](F)Cl)c1ccc(SC(F)(F)F)cc1 (single isomer, unassigned) [Example 33a]",> 7.00
3,"CC1(C)COCC[C@H]1NC(=O)[C@](C)(c1cncnc1)N(C(=O)[C@H](F)Cl)c1ccc(OC(F)(F)F)cc1 (single isomer, unassigned) [Example 76c]",< 5.00
4,"CC1(C)COCC[C@@H]1NC(=O)[C@](C)(c1cncnc1)N(C(=O)[C@H](F)Cl)c1ccc(OC(F)(F)F)cc1 (single isomer, unassigned) [Example 76d]",< 5.00
5,"CC1(C)C[C@H](NC(=O)[C@](C)(c2cncnc2)N(C(=O)[C@H](F)Cl)c2ccc(OC(F)(F)F)cc2)CCO1 (single isomer, unassigned) [Example 77c]",5.00 to 6.00
6,"CC1(C)C[C@@H](NC(=O)[C@](C)(c2cncnc2)N(C(=O)[C@H](F)Cl)c2ccc(OC(F)(F)F)cc2)CCO1 (single isomer, unassigned) [Example 77d]",< 5.00
7,"C[C@@](C(=O)NC1CCC2(CC1)COC2)(c1cncnc1)N(C(=O)[C@H](F)Cl)c1ccc(OC(F)(F)F)cc1 (single isomer, unassigned) [Example 107b]",< 5.00
8,CC(C(=O)N[C@H]1CC[C@H](OC(F)(F)F)CC1)(c1cncnc1)N(C(=O)[C@H](F)Cl)c1ccc(OC(F)(F)F)cc1 (stereo in doubt) [Example 8],> 7.00
9,C[C@](C(=O)NC1CCC(F)(F)CC1)(c1cncc(F)c1)N(C(=O)[C@H](F)Cl)c1ccc(OC(F)(F)F)cc1 [Example 11a],> 7.00
10,C[C@@](C(=O)NC1CCC(F)(F)CC1)(c1cncc(F)c1)N(C(=O)[C@H](F)Cl)c1ccc(OC(F)(F)F)cc1 [Example 11b],5.00 to 6.00
11,C[C@](C(=O)NC1CCC(F)(F)CC1)(c1cncnc1)N(C(=O)[C@H](F)Cl)c1ccc(OC(F)(F)F)cc1F [Example 26a],6.00 to 7.00
12,C[C@@](C(=O)NC1CCC(F)(F)CC1)(c1cncnc1)N(C(=O)[C@H](F)Cl)c1ccc(OC(F)(F)F)cc1F [Example 26b],5.00 to 6.00
13,C[C@](C(=O)NC1CCOCC1)(c1cncnc1)N(C(=O)[C@H](F)Cl)c1ccc(OC(F)(F)F)cc1F [Example 27a],6.00 to 7.00
14,C[C@](C(=O)NC1CCOCC1)(c1cncnc1)N(C(=O)[C@H](F)Cl)c1ccc(OC(F)(F)C(F)(F)F)cc1 [Example 32a],> 7.00
